Laboratory results taken from the supplement of paper PMC10307832.

What was measured:
Assay in all cases: relative viability (nuclei count vs DMSO), 5 days (fraction); higher = more cells survive
[1] = compound: C/C(=N\NC(=S)N1CCC1)/C2=CC=CC=N2 + N=C(N)NC(=N)NCCc1ccccc1 [Phenformin] (partner 250 µM)
Outline: (§1)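 Relative viability was taken as the ratio of nuclei in treated wells to nuclei in vehicle wells. Lung cancer cell lines in 1536-well plates received compounds by pin tool one day after seeding, either one drug alone or a fixed anchor-drug dose plus five library-drug doses (not always all listed) in √10 steps. Nuclei were counted on 4× images after 5 days of treatment, and values are medians of duplicate plates.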

[2] = compound: C/C(=N\NC(=S)N1CCC1)/C2=CC=CC=N2 + Nc1nc2[nH]cc(CCc3ccc(C(=O)N[C@@H](CCC(=O)O)C(=O)O)cc3)c2c(=O)[nH]1 [Pemetrexed] (partner 0.2 µM)
Outline: as §1

[3] = compound: C/C(=N\NC(=S)N1CCC1)/C2=CC=CC=N2 + CC(=O)Nc1cccc(-n2c(=O)n(C3CC3)c(=O)c3c(Nc4ccc(I)cc4F)n(C)c(=O)c(C)c32)c1 [Trametinib] (partner 0.02 µM)
Outline: as §1

[4] = compound: C/C(=N\NC(=S)N1CCC1)/C2=CC=CC=N2 + CC1(C)CCC(c2ccc(Cl)cc2)=C(CN2CCN(c3ccc(C(=O)NS(=O)(=O)c4ccc(N[C@H](CCN5CCOCC5)CSc5ccccc5)c(S(=O)(=O)C(F)(F)F)c4)cc3)CC2)C1 [Navitoclax] (partner 0.5 µM)
Outline: as §1

Cell Line | relative viability ([1]; first compound 0.05 µM) | relative viability ([1]; first compound 0.1581 µM) | relative viability ([1]; first compound 0.5 µM) | relative viability ([1]; first compound 1.581 µM) | relative viability ([1]; first compound 5 µM) | relative viability ([2]; first compound 0.05 µM) | relative viability ([2]; first compound 0.1581 µM) | relative viability ([2]; first compound 0.5 µM) | relative viability ([2]; first compound 1.581 µM) | relative viability ([2]; first compound 5 µM) | relative viability ([3]; first compound 0.05 µM) | relative viability ([3]; first compound 0.1581 µM) | relative viability ([3]; first compound 0.5 µM) | relative viability ([3]; first compound 1.581 µM) | relative viability ([3]; first compound 5 µM) | relative viability ([4]; first compound 0.05 µM) | relative viability ([4]; first compound 0.1581 µM) | relative viability ([4]; first compound 0.5 µM) | relative viability ([4]; first compound 1.581 µM) | relative viability ([4]; first compound 5 µM)
NCI-H1437 | 0.132 | 0.182 | 0.182 | 0.162 | 0.159 | 0.174 | 0.169 | 0.193 | 0.171 | 0.126 | 0.23 | 0.241 | 0.194 | 0.16 | 0.208 | 0.166 | 0.142 | 0.152 | 0.109 | 0.0981
NCI-H2009 | 0.125 | 0.185 | 0.221 | 0.154 | 0.184 | 0.0997 | 0.122 | 0.134 | 0.15 | 0.122 | 0.108 | 0.133 | 0.102 | 0.0932 | 0.111 | 0.1 | 0.136 | 0.0927 | 0.158 | 0.131
NCI-H1651 | 0.176 | 0.169 | 0.185 | 0.0924 | 0.0954 | 0.137 | 0.111 | 0.0991 | 0.0716 | 0.0806 | 0.209 | 0.156 | 0.137 | 0.102 | 0.0667 | 0.0866 | 0.0844 | 0.0783 | 0.0702 | 0.081
NCI-H1666 | 0.467 | 0.462 | 0.419 | 0.433 | 0.361 | 0.532 | 0.638 | 0.54 | 0.442 | 0.473 | 0.545 | 0.558 | 0.495 | 0.467 | 0.5 | 0.185 | 0.248 | 0.208 | 0.248 | 0.262
NCI-H1734 | 0.147 | 0.206 | 0.194 | 0.12 | 0.132 | 0.17 | 0.166 | 0.188 | 0.152 | 0.135 | 0.153 | 0.154 | 0.122 | 0.137 | 0.116 | 0.0989 | 0.104 | 0.0882 | 0.0843 | 0.0776
EPLC-272H | 0.112 | 0.13 | 0.084 | 0.0614 | 0.122 | 0.165 | 0.179 | 0.149 | 0.0756 | 0.265 | 0.121 | 0.114 | 0.114 | 0.0558 | 0.0892 | 0.108 | 0.356 | 0.138 | 0.125 | 0.151
NCI-H2023 | 0.102 | 0.106 | 0.0921 | 0.0767 | 0.0997 | 0.0924 | 0.0863 | 0.0863 | 0.0559 | 0.0883 | 0.0918 | 0.0896 | 0.0543 | 0.069 | 0.0829 | 0.0701 | 0.096 | 0.0791 | 0.0888 | 0.0996
BEN | 0.155 | 0.16 | 0.178 | 0.232 | 0.201 | 0.256 | 0.318 | 0.262 | 0.279 | 0.311 | 0.341 | 0.344 | 0.359 | 0.3 | 0.268 | 0.0467 | 0.0428 | 0.0598 | 0.115 | 0.114
COR-L 105 | 0.198 | 0.299 | 0.29 | 0.196 | 0.214 | 0.399 | 0.389 | 0.326 | 0.358 | 0.335 | 0.376 | 0.462 | 0.377 | 0.343 | 0.339 | 0.288 | 0.316 | 0.26 | 0.236 | 0.317
HCC-15 | 0.0651 | 0.134 | 0.144 | 0.0712 | 0.0989 | 0.198 | 0.11 | 0.13 | 0.113 | 0.093 | 0.151 | 0.23 | 0.117 | 0.0989 | 0.0939 | 0.198 | 0.392 | 0.0695 | 0.092 | 0.0784
NCI-H2170 | 0.263 | 0.26 | 0.22 | 0.222 | 0.153 | 0.235 | 0.208 | 0.202 | 0.155 | 0.116 | 0.684 | 0.869 | 0.186 | 0.174 | 0.109 | 0.581 | 0.543 | 0.168 | 0.207 | 0.189
PC-3 [JPC-3] | 0.332 | 0.342 | 0.334 | 0.277 | 0.195 | 0.394 | 0.464 | 0.308 | 0.265 | 0.237 | 0.402 | 0.409 | 0.318 | 0.357 | 0.342 | 0.42 | 0.855 | 0.281 | 0.253 | 0.285
NCI-H1993 | 0.524 | 0.495 | 0.627 | 0.581 | 0.526 | 0.382 | 0.487 | 0.436 | 0.405 | 0.375 | 0.402 | 0.374 | 0.438 | 0.351 | 0.45 | 0.664 | 0.662 | 0.638 | 0.511 | 0.533
NCI-H1915 | 0.253 | 0.231 | 0.221 | 0.178 | 0.179 | 0.128 | 0.142 | 0.163 | 0.133 | 0.126 | 0.0702 | 0.0677 | 0.0851 | 0.0919 | 0.112 | 0.522 | 0.742 | 0.169 | 0.15 | 0.137
RERF-LC-KJ | 0.316 | 0.279 | 0.319 | 0.273 | 0.287 | 0.211 | 0.231 | 0.235 | 0.191 | 0.222 | 0.242 | 0.241 | 0.204 | 0.222 | 0.214 | 0.184 | 0.266 | 0.245 | 0.159 | 0.227
LOU-NH91 | 0.371 | 0.403 | 0.352 | 0.262 | 0.419 | 0.392 | 0.439 | 0.421 | 0.403 | 0.366 | 0.632 | 0.6 | 0.583 | 0.512 | 0.452 | 0.275 | 0.308 | 0.253 | 0.225 | 0.278
